Measured values reported in US9295676B2, “Mutation mimicking compounds that bind to the kinase domain of EGFR” (The Trustees Of The University of Pennsylvania, priority 2011, dated 2016).

Columns and labels:
wild type human EGFR = molecular target: T1, wild type human EGFR (Homo sapiens, UniProt P00533); assay: Western blot of EGFR phosphorylation in NE91 cells (FIG. 6A); format: cell-based
T1 construct: expressed in transfected cells; host or cells: NE91 (mouse fibroblasts)
Experimental: (§1) Total EGFR levels were measured as a control.
Studies measuring total EGFR phosphorylation and phosphorylation of different tyrosines, cell lines NE91, NCI-H1666 and A549 expressing wild type EGFR were treated with the target compounds for 3 hours followed by either induction with 50 ng/ml EGF for 15 min or no EGF induction. The cell lysates were subjected to the immunoprecipitation with anti-EGFR antibodies followed by Western blotting with anti-pY99 (total phospho-tyrosine), anti-pY845, anti-pY1045, anti-pY 1068 and/or anti-pY1173 antibodies.

NE91 cells = assay: Anchorage independent growth, soft agar colony formation; format: cell-based, mouse
Experimental: Studies on the effects of the target compounds on anchorage-independent growth of tumor cells used four different cell lines, A549, Calu-3, NE91 and T6-17, which have different levels of EGFR molecules on the cell surface. […] Cells were analyzed for their effects on anchorage-independent growth using soft agar assays described previously in Qian, et al., “Inhibition of p185neu kinase activity and cellular transformation of co-expression of a truncated neu protein,” Oncogene, 13: 2149-2157 (1996). The cells were plated in triplicate in 0.4% agar-HBBS and allowed to grow for 2 to 3 weeks. The cells will be fed with 0.5 ml media containing compounds on the day after plating and once a week thereafter. The colonies were stained with the HBSS solution containing 1 mg/ml of P-iodonitrotetrazolium violet (2-[4-iodophenyl]-3-[4-nitrophenyl]-5-phenyltetrazolium chloride). The number of the colonies formed were counted.

L858R EGFR = molecular target: T2, L858R EGFR (Homo sapiens, UniProt P00533, L858R); assay: Western blot of EGFR phosphorylation in mouse fibroblasts expressing L858R EGFR (FIG. 6B); format: cell-based
T2 construct: expressed in transfected cells; host or cells: mouse fibroblasts
Experimental: as §1
That is, while the binding affinity of the compounds tested in non-mutated EGFR defined by the cavity described above (and when Leu is present in the 858 position), when the single mutation is introduced such that Leu-858 is replaced by Arg-858—the binding affinity drops dramatically. […] Accordingly, MMCs may be characterized as having a higher binding constant (lower dissociation constant) for non-mutated vs. L858R mutated EGFR.

AsPC1 pancreatic tumors = assay: In vivo tumor growth in mice with AsPC1 pancreatic tumors; settings: for effect on tumor growth, single agent: 15 mg/kg, FIG. 10
From the text: FIG. 10 graphically represents the results of in vivo testing of EEO3 (A) and EEO4 (B) in mice with AsPC1 tumors.

NCI-H1666 cells = assay: Apoptosis by annexin V staining and FACS, wild-type EGFR cells; format: cell-based; settings: wild-type EGFR cell line, 1 μM Tarceva® + 1 μM compound, 48 hrs
Experimental: Apoptosis was analyzed by FACS analysis after Annexin V staining and propidium iodide staining of DNA, and by Western blotting tracking caspase cascade activation. […] The cell lysates were subjected to Western blotting with anti-caspase-8, anti-caspase-3, anti-caspase-9 and anti-PARP antibodies to detect cleavage. NCI-H1650 and H3255 cells expressing mutant EGFR were used as a positive control in the apoptosis studies.

Structure (SMILES)	receptor phosphorylation (wild type human EGFR; compound alone, track 3)	Tarceva®-induced inhibition of EGFR phosphorylation (wild type human EGFR; in combination with Tarceva®, track 4)	total EGFR levels (wild type human EGFR; in the presence of the compound)	inhibitory effect on cell growth in combination with Tarceva® (NE91 cells; 0.25 μM, FIG. 8A)	anchorage independent cell growth, single agent (NE91 cells; compound alone, 0.25 μM, FIG. 8A)	enhancement of the inhibitory effect of Tarceva® on colony formation (NE91 cells; with a low concentration of Tarceva®, 1 nM, FIG. 8B)	activation of EGFR phosphorylation (L858R EGFR; cell line expressing mutant EGFR, compound alone, FIG. 6B lanes 1 and 2)	enhancement of Tarceva®-induced inhibition of EGFR phosphorylation (L858R EGFR; mutant cell line, FIG. 6B lanes 7 and 8)	effect on tumor growth, single agent (AsPC1 pancreatic tumors)	antitumor effect of the combination with Tarceva® (AsPC1 pancreatic tumors; Tarceva® with 15 mg/kg of EEO3, FIG. 10)	apoptotic activity of Tarceva® in the presence of the MMC (NCI-H1666 cells)	inhibitory effect on colony formation, single agent at low concentration (NE91 cells; low concentration, 1 nM, FIG. 8B)
CC1(C)Cc2cccc(C(=O)N3CCC(O)(c4ccc(Cl)cc4)CC3)c2O1 [EEO3]	enhancement of receptor phosphorylation	enhancement of Tarceva®-induced inhibition of EGFR phosphorylation	No changes in total EGFR levels	enhanced the inhibitory effect on cell growth	stimulated cell growth	even more dramatic	does not activate EGFR phosphorylation	does not enhance	weak antitumor effect similar to Tarceva® alone	significant synergistic antitumor effect		
Nc1ccccc1Sc1nc(-c2ccccc2N)ccc1[N+](=O)[O-] [EEN6A]											increased to the level observed with Tarceva® alone in the mutant cell line	
C#Cc1cccc(Nc2ncnc3cc(OCCOC)c(OCCOC)cc23)c1 [Tarceva®, erlotinib, reference compound]									only a modest effect on tumor growth			does not have any inhibitory effect by itself
